Laboratory results published in ChEMBL document CHEMBL1148788 (J Med Chem, 2007).

Key:
[1] = target: T1, 5-hydroxytryptamine receptor 3A (Homo sapiens, UniProt P46098); test: Antagonist activity at human 5HT3A receptor expressed in HEK293 cells by FMP assay; assay type: functional, cell-based; details: for IC50: read-out: IC50
T1 sequence (P46098 whole entry): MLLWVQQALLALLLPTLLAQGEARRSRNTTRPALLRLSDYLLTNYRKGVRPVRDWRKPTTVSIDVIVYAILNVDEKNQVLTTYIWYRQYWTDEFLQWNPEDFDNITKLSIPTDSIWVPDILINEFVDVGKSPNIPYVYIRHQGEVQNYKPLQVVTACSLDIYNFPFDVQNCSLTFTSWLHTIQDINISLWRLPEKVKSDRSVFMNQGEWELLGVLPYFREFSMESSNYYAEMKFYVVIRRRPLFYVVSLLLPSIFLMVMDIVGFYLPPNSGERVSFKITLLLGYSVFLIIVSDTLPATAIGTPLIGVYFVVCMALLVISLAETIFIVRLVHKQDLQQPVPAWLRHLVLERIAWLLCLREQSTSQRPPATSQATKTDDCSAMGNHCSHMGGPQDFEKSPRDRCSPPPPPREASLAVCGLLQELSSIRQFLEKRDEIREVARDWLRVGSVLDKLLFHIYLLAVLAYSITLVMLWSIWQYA

[2] = target: T2, Neuronal acetylcholine receptor subunit alpha-7 (Homo sapiens, UniProt P36544); test: Displacement of [3H]methyllycaconitine from alpha7 nAChR in tsA201 cells co-expressed with Ric3; assay type: cell-based
[3] = target: T3, Neuronal acetylcholine receptor; alpha3/beta4 (Rattus norvegicus, UniProt P04757+P12392); test: Displacement of [3H]epibatidine from recombinant rat alpha-3-beta-4 nAChr in HEK293 cell line; assay type: cell-based; details: for pKi: hek293
[4] = target: T3, Neuronal acetylcholine receptor; alpha3/beta4; test: Antagonist activity at rat alpha3beta4 nAChR expressed in HEK293 cells by FMP assay; assay type: functional, cell-based, Homo sapiens; details: for pIC50: hek293
[5] = cells; assay type: functional, cell-based; details: Homo sapiens, HEK293
[6] = target: T2, Neuronal acetylcholine receptor subunit alpha-7; test: Antagonist activity at human alpha-7 nAChR in tsA201 cells coexpressed with Ric3 by FMP assay; assay type: functional, cell-based
[7] = target: Neuronal acetylcholine receptor; alpha4/beta2 (Rattus norvegicus, UniProt P09483+P12390); test: Displacement of [3H]epibatidine from rat recombinant alpha-4-beta-2 nAChR in HEK293 cell line; assay type: cell-based; details: for pKi: hek293; for Ki: read-out: Ki
[8] = target: Neuronal acetylcholine receptor; alpha4/beta4 (Rattus norvegicus, UniProt P09483+P12392); test: Displacement of [3H]epibatidine from recombinant rat alpha-4-beta-4 nAChr in HEK293 cell line; assay type: cell-based; details: for pKi: hek293
[9] = target: T2, Neuronal acetylcholine receptor subunit alpha-7; test: Displacement of [3H]methyllycaconitine from human alpha-7 in tsA201 cells coexpressed with 5HT3A receptor; assay type: cell-based
[10] = target: T4, Glycine receptor subunit alpha-1 (Homo sapiens, UniProt P23415); test: Antagonist activity at human glycine alpha-1 receptor in HEK293 cells by FMP assay; assay type: functional, cell-based; details: for pIC50: hek293
T4 sequence (P23415 whole entry): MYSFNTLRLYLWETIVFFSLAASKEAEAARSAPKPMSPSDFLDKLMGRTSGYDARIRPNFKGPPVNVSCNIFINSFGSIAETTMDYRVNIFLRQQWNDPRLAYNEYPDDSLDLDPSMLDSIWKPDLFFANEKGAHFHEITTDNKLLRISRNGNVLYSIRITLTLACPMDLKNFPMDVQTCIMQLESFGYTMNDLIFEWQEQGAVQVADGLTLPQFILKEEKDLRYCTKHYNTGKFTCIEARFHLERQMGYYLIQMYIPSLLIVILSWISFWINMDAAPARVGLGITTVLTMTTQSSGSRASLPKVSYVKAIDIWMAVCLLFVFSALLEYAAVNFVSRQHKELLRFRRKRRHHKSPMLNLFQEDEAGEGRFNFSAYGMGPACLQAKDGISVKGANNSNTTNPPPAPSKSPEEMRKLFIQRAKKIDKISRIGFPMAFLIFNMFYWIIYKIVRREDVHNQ

[11] = target: T1, 5-hydroxytryptamine receptor 3A; test: Displacement of [3H]GR65630 from human 5HT3A receptor in HEK293 cells; assay type: cell-based; details: for pKi: hek293

Neuronal acetylcholine receptor; alpha4/beta4, sequence (P09483 whole entry): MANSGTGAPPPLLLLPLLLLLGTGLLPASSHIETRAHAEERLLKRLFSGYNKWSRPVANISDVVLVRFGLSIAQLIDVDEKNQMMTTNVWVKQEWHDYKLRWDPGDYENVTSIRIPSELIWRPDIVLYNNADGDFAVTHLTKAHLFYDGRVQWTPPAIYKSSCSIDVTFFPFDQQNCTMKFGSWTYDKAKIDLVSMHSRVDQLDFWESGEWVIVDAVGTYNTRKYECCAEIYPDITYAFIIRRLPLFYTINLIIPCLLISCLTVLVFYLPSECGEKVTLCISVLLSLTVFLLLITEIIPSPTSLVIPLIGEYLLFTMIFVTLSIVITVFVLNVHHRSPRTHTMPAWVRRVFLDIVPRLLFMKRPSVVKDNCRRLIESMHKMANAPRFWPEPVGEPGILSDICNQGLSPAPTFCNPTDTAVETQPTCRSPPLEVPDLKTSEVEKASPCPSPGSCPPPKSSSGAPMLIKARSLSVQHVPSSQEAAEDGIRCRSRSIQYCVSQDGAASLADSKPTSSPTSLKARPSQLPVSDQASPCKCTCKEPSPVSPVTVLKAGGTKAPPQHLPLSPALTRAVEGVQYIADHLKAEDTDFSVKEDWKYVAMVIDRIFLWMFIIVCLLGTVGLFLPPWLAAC
Neuronal acetylcholine receptor; alpha4/beta4, sequence (P12392 whole entry): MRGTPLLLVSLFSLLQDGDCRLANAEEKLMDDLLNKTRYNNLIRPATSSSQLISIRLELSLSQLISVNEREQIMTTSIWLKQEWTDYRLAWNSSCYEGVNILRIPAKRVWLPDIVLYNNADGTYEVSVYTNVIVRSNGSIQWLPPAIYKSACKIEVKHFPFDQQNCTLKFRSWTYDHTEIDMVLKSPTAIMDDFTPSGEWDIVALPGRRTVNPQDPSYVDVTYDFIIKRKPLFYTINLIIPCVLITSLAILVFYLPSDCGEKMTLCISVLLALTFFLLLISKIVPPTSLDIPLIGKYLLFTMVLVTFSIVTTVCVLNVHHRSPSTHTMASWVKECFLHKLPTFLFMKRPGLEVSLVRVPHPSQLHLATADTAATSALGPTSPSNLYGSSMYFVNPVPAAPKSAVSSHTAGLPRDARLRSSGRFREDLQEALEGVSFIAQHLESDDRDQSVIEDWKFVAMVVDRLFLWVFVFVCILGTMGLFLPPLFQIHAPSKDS
Neuronal acetylcholine receptor; alpha4/beta2, sequence (P09483 whole entry): as the sequence (P09483 whole entry) above
Neuronal acetylcholine receptor; alpha4/beta2, sequence (P12390 whole entry): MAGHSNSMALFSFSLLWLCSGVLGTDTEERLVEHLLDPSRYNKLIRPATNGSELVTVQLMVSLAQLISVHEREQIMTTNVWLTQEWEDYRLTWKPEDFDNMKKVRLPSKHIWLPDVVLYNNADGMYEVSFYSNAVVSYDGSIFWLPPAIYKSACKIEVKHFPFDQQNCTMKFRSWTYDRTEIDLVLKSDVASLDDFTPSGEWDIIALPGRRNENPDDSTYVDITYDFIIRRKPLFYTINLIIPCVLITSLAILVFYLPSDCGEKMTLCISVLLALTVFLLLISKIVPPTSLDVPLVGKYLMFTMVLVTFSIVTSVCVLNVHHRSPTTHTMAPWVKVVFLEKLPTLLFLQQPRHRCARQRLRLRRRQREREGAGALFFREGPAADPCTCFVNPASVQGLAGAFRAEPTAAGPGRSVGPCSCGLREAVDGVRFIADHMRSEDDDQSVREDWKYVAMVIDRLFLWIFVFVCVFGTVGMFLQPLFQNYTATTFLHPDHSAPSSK
T3 sequence (P04757 whole entry): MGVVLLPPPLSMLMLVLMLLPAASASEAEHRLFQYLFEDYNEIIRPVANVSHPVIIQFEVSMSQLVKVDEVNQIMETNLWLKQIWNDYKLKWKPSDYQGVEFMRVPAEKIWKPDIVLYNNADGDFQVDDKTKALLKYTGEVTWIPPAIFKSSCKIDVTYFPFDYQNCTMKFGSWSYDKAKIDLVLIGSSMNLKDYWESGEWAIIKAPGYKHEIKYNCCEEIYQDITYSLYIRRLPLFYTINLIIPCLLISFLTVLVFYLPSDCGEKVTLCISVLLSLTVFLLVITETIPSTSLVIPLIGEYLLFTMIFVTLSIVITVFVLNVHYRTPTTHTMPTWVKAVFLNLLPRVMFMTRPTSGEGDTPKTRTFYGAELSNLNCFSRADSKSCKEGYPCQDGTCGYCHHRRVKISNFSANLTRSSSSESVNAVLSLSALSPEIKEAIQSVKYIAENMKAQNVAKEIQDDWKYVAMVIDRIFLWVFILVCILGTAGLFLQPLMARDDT
T3 sequence (P12392 whole entry): as the sequence (P12392 whole entry) above
T2 sequence (P36544 whole entry): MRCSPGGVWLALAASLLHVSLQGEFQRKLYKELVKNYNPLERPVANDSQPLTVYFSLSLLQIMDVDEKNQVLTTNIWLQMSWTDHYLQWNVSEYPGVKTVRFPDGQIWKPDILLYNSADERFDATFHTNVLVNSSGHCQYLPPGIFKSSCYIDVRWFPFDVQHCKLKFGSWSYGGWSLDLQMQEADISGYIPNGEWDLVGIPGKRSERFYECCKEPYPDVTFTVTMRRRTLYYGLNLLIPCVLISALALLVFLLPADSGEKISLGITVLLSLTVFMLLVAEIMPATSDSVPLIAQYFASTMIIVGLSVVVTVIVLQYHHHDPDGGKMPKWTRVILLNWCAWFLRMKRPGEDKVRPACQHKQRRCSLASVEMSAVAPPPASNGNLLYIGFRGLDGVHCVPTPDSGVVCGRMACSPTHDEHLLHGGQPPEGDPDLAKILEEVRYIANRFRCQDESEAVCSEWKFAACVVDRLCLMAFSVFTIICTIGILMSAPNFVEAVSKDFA

SMILES	IC50 [1]	Ki ([2]; read-out: Ki)	Ki ([2]; read-out: pKi (converted))	Ki [3]	pKi [3]	IC50 ([4]; read-out: IC50)	IC50 ([5]; read-out: IC50)	IC50 ([5]; read-out: pIC50 (converted))	IC50 ([6]; read-out: IC50)	IC50 ([6]; read-out: pIC50 (converted))	pKi [7]	Ki [7]	Ki [8]	pKi [8]	Ki ([9]; read-out: Ki)	Ki ([9]; read-out: pKi (converted))	IC50 [10]	pIC50 [10]	Ki [11]	pIC50 [4]	also measured
COc1ccc(C[N+]23CC[C@@H]4[C@@H]5/C(=C\N6c7ccccc7[C@@]78CC[N+]9(Cc%10ccc(OC)c(OC)c%10)CC%10=CCO[C@H]([C@@H]([C@H]67)[C@H]%10C[C@@H]89)N5c5ccccc5)[C@@H](C[C@@H]42)/C(=C\CO)C3)cc1OC.[Cl-].[Cl-] (stereo partly specified)	30 µM	0.2 µM	0.2 µM	> 100 µM	< 4	100 µM	> 100 µM	> 100 µM	2.6 µM	2.63 µM	< 4	> 100 µM	> 100 µM	< 4	0.27 µM	0.251 µM	> 100 µM	< 4	100 µM		IC50 ([4]; read-out: pIC50 (converted)): 31.6 µM
CN(C)Cc1c2n(c3ccccc13)Cc1c(CN(C)C)c3ccccc3n1C2		5.4 µM	5.01 µM	> 100 µM	< 4						< 4	> 100 µM	> 100 µM	< 4	19 µM	20 µM			> 100 µM		pKi [11]: < 4
C=CC[N+]12CC[C@@H]3[C@@H]4[C@@H]5[C@@H](OCC=C(C1)[C@@H]5C[C@@H]32)N1c2ccccc2[C@@]23CCN5CC6=CCO[C@H]([C@@H]([C@H]12)[C@H]6C[C@H]53)N4c1ccccc1.[Br-] (stereo partly specified)	30 µM	0.055 µM	0.0501 µM	> 100 µM	< 4	30 µM	> 100 µM	> 100 µM	0.34 µM	0.339 µM	< 4	> 100 µM	> 100 µM	< 4	0.071 µM		> 100 µM	< 4	19 µM		
C[N+](C)(Cc1ccc([N+](=O)[O-])cc1)Cc1c2n(c3ccccc13)Cc1c(C[N+](C)(C)Cc3ccc([N+](=O)[O-])cc3)c3ccccc3n1C2.[Br-].[Br-]	30 µM	3.9 µM	3.98 µM	> 100 µM	< 4	> 100 µM	> 100 µM	> 100 µM	30 µM	100 µM	< 4	> 100 µM	> 100 µM	< 4	2.1 µM	2 µM	> 100 µM	< 4	> 100 µM	< 4	pKi [11]: < 4
OC/C=C1/C[N+]2(C3C=CCCC3)CC[C@@H]3[C@@H]4/C(=C\N5c6ccccc6[C@@]67CC[N+]8(C9C=CCCC9)CC9=CCO[C@H]([C@@H]([C@H]56)[C@H]9C[C@@H]78)N4c4ccccc4)[C@H]1C[C@@H]32.[Br-].[Br-] (stereo partly specified)	30 µM	0.23 µM	0.251 µM	100 µM		30 µM	> 100 µM	> 100 µM	2.3 µM	2.34 µM	< 4	> 100 µM	> 100 µM	< 4	0.36 µM	0.316 µM	> 100 µM	< 4	40 µM		
C/C=C/C[N+]12CC[C@@H]3[C@@H]4[C@@H]5[C@@H](OCC=C(C1)[C@@H]5C[C@@H]32)N1c2ccccc2[C@@]23CC[N+]5(C/C=C/C)CC6=CCO[C@H]([C@@H]([C@H]12)[C@H]6C[C@@H]35)N4c1ccccc1.[Br-].[Br-] (stereo partly specified)	100 µM	0.1 µM		100 µM		100 µM	> 100 µM	> 100 µM	1.1 µM	1.15 µM	< 4	> 100 µM	> 100 µM	< 4	0.23 µM	0.251 µM	> 100 µM	< 4	15 µM		pKi ([2]; tsa201): 7
COc1ccc(C[N+]23CC[C@@H]4[C@@H]5[C@@H]6[C@@H](OCC=C(C2)[C@@H]6C[C@@H]43)N2c3ccccc3[C@@]34CC[N+]6(Cc7ccc(OC)c(OC)c7)CC7=CCO[C@H]([C@@H]([C@H]23)[C@H]7C[C@@H]46)N5c2ccccc2)cc1OC.[Cl-].[Cl-] (stereo partly specified)	30 µM	0.059 µM	0.0631 µM	> 100 µM	< 4	> 100 µM	> 100 µM	> 100 µM	1.3 µM	1.32 µM	< 4	> 100 µM	> 100 µM	< 4	0.13 µM	0.126 µM	> 100 µM	< 4	28 µM	< 4	
Brc1ccc(C[N+]23CC[C@@H]4[C@@H]5[C@@H]6[C@@H](OCC=C(C2)[C@@H]6C[C@@H]43)N2c3ccccc3[C@@]34CC[N+]6(Cc7ccc(Br)cc7)CC7=CCO[C@H]([C@@H]([C@H]23)[C@H]7C[C@@H]46)N5c2ccccc2)cc1.[Br-].[Br-] (stereo partly specified)	30 µM	0.64 µM	0.631 µM	> 100 µM	< 4	> 100 µM	> 100 µM	> 100 µM	10 µM	10.5 µM	< 4	> 100 µM	> 100 µM	< 4	0.26 µM	0.251 µM	> 100 µM	< 4	5.7 µM	< 4	
OC/C=C1/CN2CC[C@H]3[C@@H]2C[C@@H]1/C1=C/N2c4ccccc4[C@@]45CCN6CC7=CCO[C@H]([C@@H]([C@H]24)[C@H]7C[C@H]65)N(c2ccccc2)[C@@H]13	2.5 µM	1.7 µM	1.58 µM	30 µM		16 µM	> 100 µM	> 100 µM	1.5 µM	1.51 µM	< 4	> 100 µM	> 100 µM	< 4	1.2 µM	1.26 µM	> 100 µM	< 4	1.9 µM		
C=CC[N+](C)(C)Cc1c2n(c3ccccc13)Cc1c(C[N+](C)(C)CC=C)c3ccccc3n1C2.[Br-].[Br-]	> 100 µM	2.9 µM	3.16 µM	> 100 µM	< 4	> 100 µM	> 100 µM	> 100 µM	30 µM	100 µM	< 4	> 100 µM	> 100 µM	< 4	4.4 µM	3.98 µM	> 100 µM	< 4	> 100 µM	< 4	pIC50 ([1]; hek293): < 4; pKi [11]: < 4
C1=C2C[N+]3(Cc4ccc5ccccc5c4)CC[C@@H]4[C@@H]5[C@H]([C@@H](OC1)N1c6ccccc6[C@@]67CC[N+]8(Cc9ccc%10ccccc%10c9)CC9=CCO[C@H]([C@@H]([C@H]16)[C@H]9C[C@@H]78)N5c1ccccc1)[C@H]2C[C@@H]43 (stereo partly specified)		0.71 µM	0.631 µM												0.36 µM	0.316 µM					
